This is an account of results in ChEMBL document CHEMBL6078680, “Improving the Stability and Anti-Infective Activity of Sea Turtle AMPs Using Multiple Structural Modification Strategies” (J Med Chem, 2024).

Series [1] relates to Acinetobacter baumannii. The experiment in a line: In vivo antibacterial activity against Acinetobacter baumannii ATCC19606 infected in BALB/c mouse assessed as reduction in bacterial load in lung at 15 mg/kg, ip measured after 3 hrs. Format: functional, organism-based.
For series [2], the system named is Cell membrane. The experiment in a line: Induction of cell membrane permeabilization in Staphylococcus aureus CMCC 26003 at 5 times MIC measured for 1 hr by propidium iodide dye-based fluorescence assay. Format: subcellular.
Series [3] concerns Acinetobacter baumannii. The experiment in a line: Antibiofilm activity against Acinetobacter baumannii ATCC 19606 assessed as biofilm eradication incubated for 24 hrs by crystal violet staining based analysis. Format: functional, organism-based.
The subject of series [4] is Escherichia coli. Briefly: Antibacterial activity against Escherichia coli ATCC 25922 at 1 times MIC in presence of exogenous DNA. Format: functional, organism-based.
Series [5] concerns Escherichia coli. The experiment in a line: Antibacterial activity against Escherichia coli ATCC 25922 at 1 times MIC in presence of 25 microg/ml exogenous DNA. Format: functional, organism-based.
Series [6] relates to Acinetobacter baumannii. Briefly: Antibiofilm activity against Acinetobacter baumannii ATCC 19606 assessed as inhibition of biofilm formation at 0.5 times MIC incubated for 48 hrs by crystal violet staining based analysis. Type of series: functional.
A further series has as its target Trypsin (Homo sapiens, UniProt P07477+P07478+P35030). Briefly: Stability of compound assessed as trypsin (unknown origin) mediated drug degradation […] measured at 24 hrs by RP-HPLC analysis. Type of series: ADME, protein assay. The following applies: read-out: Activity.
For series [7], the system named is Acinetobacter baumannii. Briefly: Antimicrobial activity against Acinetobacter baumannii ATCC19606 assessed as reduction in microbial growth incubated for 18 hrs by broth microdilution method. Type of series: functional.
For series [8], the system named is Cell membrane. Briefly: Induction of cell membrane permeabilization in Escherichia coli ATCC 25922 by propidium iodide dye-based fluorescence assay. Type of series: subcellular.
In series [9] the test system is Acinetobacter baumannii. The experiment in a line: Antipersister-activity against Acinetobacter baumannii ATCC 19606 assessed as elimination of persister cells at 4 times MIC preincubated adherent persistent cells with colistin incubation for 24 hrs. Format: functional.
For series [10], the system named is Cell membrane. Briefly: Induction of outer membrane permeabilization in Escherichia coli ATCC 25922 at 5 times MIC measured for 1 hr by NPN-dye based fluorescence analysis. Type of series: subcellular.
The subject of series [11] is Staphylococcus aureus. The experiment in a line: Antipersister-activity against Staphylococcus aureus CMCC 26003 assessed as elimination of persister cells at 50 times MIC preincubated adherent persistent cells with colistin incubation for 24 hrs. Format: functional.
Series [12] relates to Escherichia coli. Briefly: Antimicrobial activity against Escherichia coli ATCC 25922 assessed as fold increase in MIC incubated for 18 hrs in presence of LPS. Type of series: functional.
Series [13] concerns Cell membrane. The experiment in a line: Induction of cell membrane permeabilization in Escherichia coli ATCC 25922 at 2 times MIC measured for 1 hr by propidium iodide dye-based fluorescence assay. Type of series: subcellular.
For series [14], the system named is Acinetobacter baumannii. Briefly: Antimicrobial activity against Acinetobacter baumannii ATCC 19606 assessed as fold increase in MIC incubated for 18 hrs in presence of LPS. Type of series: functional.
The subject of series [15] is Staphylococcus aureus. Briefly: Antimicrobial activity against Staphylococcus aureus CMCC 26003 at 5 times MIC measured at 180 mins. Type of series: functional, organism-based.
Series [16] concerns Escherichia coli. Briefly: Antimicrobial activity against Escherichia coli ATCC 25922 assessed as reduction in microbial growth incubated for 18 hrs by broth microdilution method. Type of series: functional.
A short description of series [17]: Hemolytic activity at human Erythrocyte assessed as hemolysis at 100 microg/ml. Type of series: toxicity, cell-based. The note with it: erythrocytes, at 100 µg/mL, read-out: Activity.
The next series deals with RAW264.7. Briefly: Cytotoxicity against mouse RAW264.7 cells upto 200 microg/ml by MTT assay. Type of series: toxicity, cell-based. The following applies: dose < 200 µg/ml.
In another series the test system is Salmonella enteritidis. The experiment in a line: Antimicrobial activity against Salmonella enterica subsp. enterica serovar Enteritidis ATCC 14028 assessed as reduction in microbial growth incubated for 18 hrs by broth microdilution method. Type of series: functional.
The test system of series [18] is Acinetobacter baumannii. The experiment in a line: In vivo antibacterial activity against Acinetobacter baumannii ATCC19606 infected in BALB/c mouse assessed as reduction in bacterial load in abdominal cavity at 15 mg/kg, ip measured after 12 hrs. Format: functional, organism-based.
Series [19] has as its system Acinetobacter baumannii. Briefly: In vivo antibacterial activity against Acinetobacter baumannii ATCC19606 infected in BALB/c mouse assessed as survival at 15 mg/kg, ip administered for 12 hrs and measured after 3 hrs. Type of series: functional. The following applies: time 15 hrs.

Activity calls are given as the source filed them. No cut-off for these calls is given here. Non-standard residues stand in square brackets, D forms with d. Residues, ends and D or L forms follow the SMILES beside them. Orn = NCCC[C@H](N)C(=O)O

On to `CC[C@H](C)[C@H](NC(=O)[C@H](CCCN)NC(=O)[C@H](CO)NC(=O)[C@H](Cc1c[nH]cn1)NC(=O)[C@H](CCCN)NC(=O)[C@H](CC(C)C)NC(=O)[C@@H](NC(=O)[C@H](CCCN)NC(=O)CNC(=O)[C@H](CC(C)C)NC(=O)[C@H](CCC(N)=O)NC(=O)[C@H](CCCN)NC(=O)[C@H](CCCN)NC(=O)[C@@H](NC(=O)[C@H](CCCN)NC(=O)[C@H](CCCN)NC(=O)[C@@H](N)Cc1ccccc1)C(C)C)C(C)C)C(=O)N[C@H](C(=O)N[C@H](C(=O)NCC(=O)NCC(=O)N[C@@H](CCCN)C(=O)N[C@@H](CCSC)C(=O)N[C@@H](CCCN)C(=O)N[C@@H](Cc1ccccc1)C(=O)O)C(C)C)[C@@H](C)O` (H-F[Orn][Orn]V[Orn][Orn]QLG[Orn]VL[Orn]HS[Orn]ITVGG[Orn]M[Orn]F-OH), for which the outcome in the series on Acinetobacter baumannii [1], in the series with Acinetobacter baumannii [3], in the series on Escherichia coli [4] and in the series with Acinetobacter baumannii [18] was Active. For the same molecule, the Activity was 24.6% in the series with Cell membrane [2]; “Dose-dependent-effect” in the series on Cell membrane [8]; 74.5% in the series with Acinetobacter baumannii [9]; 100% in the series on Cell membrane [10]; 50% in the series with Staphylococcus aureus [11]; over 90% in the series with Cell membrane [13]. Moreover, the values for the Activity entry in the series on RAW264.7 and in the series on Acinetobacter baumannii [19] were “Non-toxic” and over 60%, respectively. For the same molecule, the outcome in the series with Escherichia coli [5] and in the series on Staphylococcus aureus [15] was inactive. The “inhibition (INH)” value in the series on Acinetobacter baumannii [6] is recorded as 10%. The metabolised at 24 h on Trypsin was under 60%. The MIC was determined as 9.38 µg/mL with Acinetobacter baumannii [7], 9.38 µg/mL in the series on Escherichia coli [16] and 37.5 µg/mL in the series on Salmonella enteritidis. In addition, the “fold change (FC)” value with Escherichia coli [12] and in the series on Acinetobacter baumannii [14] was 16 in each case. Also, the hemolysis at 100 microg/ml in [17] was under 5%.
